One test relates to HCV 1b replicon. The experiment in a line: Antiviral activity assay in HCV replicon system (Huh7 1b cells, luciferase reporter). In kind it is cell-based. Particulars: Hepatitis C virus, Huh-7, 72 h. The source says: The cell line Huh7 1b, which was provided by WuXi AppTec Co., Ltd. in Shanghai, contained an HCV 1b replicon with a stable Luciferase (Luc) reporter. It was constructed by cloning HCV nonstructural protein gene, neo (G418 resistance) and luciferase reporter gene into the pBR vector through gene recombination technology. Then the vector carrying the HCV replicon was transfected into Huh7 cells, and the transfected Huh7 cells were screened by G418 resistance. The HCV replicon was stably replicated, and the related protein and luciferase were stably expressed in Huh7 cells. The cells model was used for in-vitro screen of anti-HCV compounds. The anti-HCV activity of the compounds was measured by detecting the level of luciferase expression. See Lohmann V, et al. 1999. Replication of subgenomic hepatitis C virus RNAs in a hepatoma cell line. Science. 285(5424):110-113.
The control drug used in this experimental example was the compound of Example 25 in WO 2008/121634 (PCT/US2008/058183), i.e. (S)-2-{[(2R,3R,4R,5R)-5-(2,4-dioxo-3,4-dihydro-2H-pyrimidin-1-yl)-4-fluoro-3-hydr oxy-4-methyl-tetrahydro-furan-2-ylmethoxy]-phenoxy-phosphorylamino}-propanoic acid isopropyl ester. This compound was prepared according to the method described in J. Org. chem, 2011, 76, 8311-8319, and identified by H-NMR and mass spectrometry.
• 2.1 compound preparation: adding each of the compounds listed in Table 2 to 96-well plates using a POD™ 810 Automation Platform (LabCyte Corporation, USA), with 10 μM of each of the compounds as a starting concentration and in duplicate; serially diluting each of the compounds in 3-fold fashion and formulating 10 concentrations, with the final concentration of DMSO being 0.5%; • 2.2 cells preparation: seeding the Huh71b cells into 96-well plates respectively with a volume of 125 μl and 8×10^3 cells/well, and incubating in a 37° C., 5% CO2 incubator for 72 h; • 2.3 detection of cell activity: adding 30 μl per cell of the CellTiter-Fluor™ Reagent, incubating in a 37° C., 5% CO2 incubator for 1 h, measuring the fluorescence signal values with a fluorometer, and using the obtained data for calculation of cytotoxicities of the compounds; • 2.4 Bright-Glo detection: adding 100 μl per well of the Bright-Glo™ Luciferase Substrate, using a chemiluminescence detection system EnVision™ (PerkinElmer, USA) to detect the fluorescence signal values within 5 minutes, and using the obtained data for calculation of potencies of the compounds. • 2.5 data processing: converting the obtained data to a percentage of cell viability (Viability %) using the following formula:
[formula] • CPD: fluorescence signal value of the well added with the compound • ZPE (Zero percent effect): fluorescence signal value of the control well with zero percent effect. • Processing the raw data to calculate a percentage of inhibition (Inhibition %) using the following formula:
[formula] • CPD: fluorescence signal value of the well added with the compound; • HPE (Hundred percent effect): fluorescence signal value of the control well with hundred percent effect; • ZPE (Zero percent effect): fluorescence signal value of the control well with zero percent effect.
The inhibition percentage was processed by the GraphPad Prism software to obtain the corresponding curves and EC50 values.
Take `CC(C)OC(=O)[C@H](C)NP(=O)(OC[C@H]1O[C@@H](n2ccc(=O)[nH]c2=O)[C@](C)(F)[C@@H]1O)Oc1ccc2[nH]ccc2c1` (stereo partly drawn) [Example 20, (2S)-2-(((1H-indol-5-yloxy)(((2R,3R,4R,5R)-5-(2,4-dioxo-3,4-dihydropyrimidin-1(2H)-yl)-4-fluoro-3-hydroxy-4-methyltetrahydrofuran-2-yl)methoxy)phosphoryl)amino)propanoic Acid Isopropyl Ester]: the EC50 stood at 3870 nM.

Still in this test, the particulars now being: Hepatitis C virus, Huh-7; Huh7 1b cells with HCV 1b replicon, Bright-Glo luciferase, 72 h; read-out: EC50.
Turning to `COc1cc(/C=C/c2ccc(OP(=O)(N[C@@H](C)C(=O)OC(C)C)OC[C@H]3O[C@@H](n4ccc(=O)[nH]c4=O)[C@](C)(F)[C@@H]3O)cc2)cc(OC)c1` (stereo in doubt) [Example 8, (2S)-2-((((E)-4-(3,5-dimethoxyphenylethenyl)phen-1-yloxy)(((2R,3R,4R,5R)-5-(2,4-dioxo-3,4-dihydropyrimidin-1(2H)-yl)-4-fluoro-3-hydroxy-4-methyltetrahydrofuran-2-yl)methoxy)phosphoryl)amino)propanoic Acid Isopropyl Ester], the EC50 is 411 nM.

Regarding `CC(C)OC(=O)[C@H](C)NP(=O)(OC[C@H]1O[C@@H](n2ccc(=O)[nH]c2=O)[C@](C)(F)[C@@H]1O)Oc1ccccc1-c1ccccc1` (stereo partly drawn) [Example 3, (2S)-2-((([1,1′-biphenyl]-2-yloxy)(((2R,3R,4R,5R)-5-(2,4-dioxo-3,4-dihydropyrimidin-1(2H)-yl)-4-fluoro-3-hydroxy-4-methyltetrahydrofuran-2-yl)methoxy)phosphoryl)amino)propanoic Acid Isopropyl Ester], the concentration for a half-maximal effect (EC50) stood at 123 nM.

Take `CC(C)OC(=O)[C@H](C)NP(=O)(OC[C@H]1O[C@@H](n2ccc(=O)[nH]c2=O)[C@](C)(F)[C@@H]1O)Oc1ccc(C#Cc2ccccc2)cc1` (some centres unmarked) [Example 11]: the half-maximal effective concentration (EC50) was determined as 189 nM.

As for `COC(=O)CNP(=O)(OC[C@H]1O[C@@H](n2ccc(=O)[nH]c2=O)[C@](C)(F)[C@@H]1O)Oc1cccc2c1CCCC2` (stereo partly drawn) [Example 14, (2S)-2-(((5,6,7,8-tetrahydronaphthalen-1-yloxy)(((2R,3R,4R,5R)-5-(2,4-dioxo-3,4-dihydropyrimidin-1(2H)-yl)-4-fluoro-3-hydroxy-4-methyltetrahydrofuran-2-yl)methoxy)phosphoryl)amino)acetic Acid Methyl Ester], the EC50 is 223 nM.

As to `C[C@H](NP(=O)(OC[C@H]1O[C@@H](n2ccc(=O)[nH]c2=O)[C@](C)(F)[C@@H]1O)Oc1cccc2c1CCCC2)C(=O)OC(C)(C)C` (stereo partly drawn) [Example 15, (2S)-2-(((5,6,7,8-tetrahydronaphthalen-1-yloxy)(((2R,3R,4R,5R)-5-(2,4-dioxo-3,4-dihydropyrimidin-1(2H)-yl)-4-fluoro-3-hydroxy-4-methyltetrahydrofuran-2-yl)methoxy)phosphoryl)amino)propanoic Acid t-butyl Ester], the EC50 was above 3330 nM.

For the molecule `CC(C)OC(=O)[C@H](C)NP(=O)(OC[C@H]1O[C@@H](n2ccc(=O)[nH]c2=O)[C@](C)(F)[C@@H]1O)Oc1ccc(-c2cncs2)cc1` (some centres unmarked) [Example 17], the EC50 worked out at 258 nM.

Regarding `CC(C)OC(=O)[C@H](C)NP(=O)(OC[C@H]1O[C@@H](n2ccc(=O)[nH]c2=O)[C@](C)(F)[C@@H]1O)Oc1ccc(/C=C/c2ccc(F)cc2)cc1` (stereo partly drawn) [Example 19, (2S)-2-(((4-((E)-4-fluorophenylethenylphenyl)-1-yloxy)(((2R,3R,4R,5R)-5-(2,4-dioxo-3,4-dihydropyrimidin-1(2H)-yl)-4-fluoro-3-hydroxy-4-methyltetrahydrofuran-2-yl)methoxy)phosphoryl)amino)propanoic Acid Isopropyl Ester], the EC50 is 303 nM.

As to `Cc1cc2c(F)c(OP(=O)(N[C@@H](C)C(=O)OC(C)C)OC[C@H]3O[C@@H](n4ccc(=O)[nH]c4=O)[C@](C)(F)[C@@H]3O)ccc2[nH]1` (stereo partly drawn) [Example 21, (2S)-2-(((4-fluoro-2-methyl-1H-indol-5-yloxy)(((2R,3R,4R,5R)-5-(2,4-dioxo-3,4-dihydropyrimidin-1(2H)-yl)-4-fluoro-3-hydroxy-4-methyltetrahydrofuran-2-yl)methoxy)phosphoryl)amino)propanoic Acid Isopropyl Ester], the EC50 came out at 258 nM.

Consider `COC(=O)Cc1coc2c(OP(=O)(N[C@@H](C)C(=O)OC(C)C)OC[C@H]3O[C@@H](n4ccc(=O)[nH]c4=O)[C@](C)(F)[C@@H]3O)cccc12` (stereo partly drawn) [Example 22, (2S)-2-(((3-methoxycarbonylmethyl-benzofuran-7-yloxy)(((2R,3R,4R,5R)-5-(2,4-dioxo-3,4-dihydropyrimidin-1(2H)-yl)-4-fluoro-3-hydroxy-4-methyltetrahydrofuran-2-yl)methoxy)phosphoryl)amino)propanoic Acid Isopropyl Ester], for which the EC50 was 314 nM.

For the molecule `CC(C)OC(=O)[C@H](C)NP(=O)(OC[C@H]1O[C@@H](n2ccc(=O)[nH]c2=O)[C@](C)(F)[C@@H]1O)Oc1ccc2oc(-c3ccccc3)cc(=O)c2c1` (some centres unmarked) [Example 23], the EC50 worked out at 4490 nM.

For `CC(C)OC(=O)[C@H](C)NP(=O)(OC[C@H]1O[C@@H](n2ccc(=O)[nH]c2=O)[C@](C)(F)[C@@H]1O)Oc1ccc(-c2ccc(Cl)cc2)cc1` (stereo partly drawn) [Example 27, (2S)-2-((((4′-chloro-[1,1′-biphenyl]-4-yl)oxy)(((2R,3R,4R,5R)-5-(2,4-dioxo-3,4-dihydropyrimidin-1(2H)-yl)-4-fluoro-3-hydroxy-4-methyltetrahydrofuran-2-yl)methoxy)phosphoryl)amino)propanoic Acid Isopropyl Ester], the EC50 amounted to 98 nM.

In the case of `CC(C)OC(=O)[C@H](C)NP(=O)(OC[C@H]1O[C@@H](n2ccc(=O)[nH]c2=O)[C@](C)(F)[C@@H]1O)Oc1ccc(-c2cccc(F)c2)cc1` (stereo partly drawn) [Example 31, (2S)-2-((((3′-fluoro-[1,1′-biphenyl]-4-yl)oxy)(((2R,3R,4R,5R)-5-(2,4-dioxo-3,4-dihydropyrimidin-1(2H)-yl)-4-fluoro-3-hydroxy-4-methyltetrahydrofuran-2-yl)methoxy)phosphoryl)amino)propanoic Acid Isopropyl Ester], the concentration for a half-maximal effect (EC50) amounted to 102 nM.

For `CC(C)OC(=O)[C@H](C)NP(=O)(OC[C@H]1O[C@@H](n2ccc(=O)[nH]c2=O)[C@](C)(F)[C@@H]1O)Oc1ccc(-c2cccc(Cl)c2)cc1` (stereo partly drawn) [Example 32, (2S)-2-((((3′-chloro-[1,1′-biphenyl]-4-yl)oxy)(((2R,3R,4R,5R)-5-(2,4-dioxo-3,4-dihydropyrimidin-1(2H)-yl)-4-fluoro-3-hydroxy-4-methyltetrahydrofuran-2-yl)methoxy)phosphoryl)amino)propanoic Acid Isopropyl Ester], the EC50 was 68 nM.

For the molecule `Cc1cc2c(F)c(O[P@](=O)(N[C@@H](C)C(=O)OC(C)C)OC[C@H]3O[C@@H](n4ccc(=O)[nH]c4=O)[C@](C)(F)[C@@H]3O)ccc2n1C` [Example 33, (2S)-2-(((S)-((4-fluoro-1,2-dimethyl-1H-indol-5-yl)oxy)(((2R,3R,4R,5R)-5-(2,4-dioxo-3,4-dihydropyrimidin-1(2H)-yl)-4-fluoro-3-hydroxy-4-methyltetrahydrofuran-2-yl)methoxy)phosphoryl)amino)propanoic Acid Isopropyl Ester], the EC50 was 33 nM.

With `COc1ccc(-c2ccc(OP(=O)(N[C@@H](C)C(=O)OC(C)C)OC[C@H]3O[C@@H](n4ccc(=O)[nH]c4=O)[C@](C)(F)[C@@H]3O)cc2)cc1` (some centres unmarked) [Example 36], the 50% effective concentration (EC50) was 73 nM.

For `CC(C)OC(=O)[C@H](C)NP(=O)(OC[C@H]1O[C@@H](n2ccc(=O)[nH]c2=O)[C@](C)(F)[C@@H]1O)Oc1ccc(-c2ccc(Cl)cc2F)cc1` (some centres unmarked) [Example 39], the concentration for a half-maximal effect (EC50) stood at 61 nM.

The values are drawn from US9963480B2, “Nucleoside phosphoramidate compound and use thereof” (priority 2013, dated 2018).
